Like-named read-outs stand apart in the source and are kept apart here. Some results are limits rather than exact numbers.

Assay [1] in a line: 65Zn2+ binding to immobilized peptide (dot-blot, Scatchard competition analysis). Conditions: for zinc binding (in words): dot-blot or blot of tryptic digest probed with ^65Zn^2+. Here is the method:
^65Zn^2+ Binding Studies—Dissolved peptides (1.2 nMol, unless other wise stated) were dot-blotted onto polyvinylidene difluoride membrane (0.2-μm pore size; Pierce Chemical Co.), washed twice with chelating buffer (200 μl×100 mM NaCl, 20 mM Tris-HCl, 1 mM EDTA, pH 7.4), then five times with blocking buffer (200 μl×100 mM NaCl, 20 mM Tris-HCl, 1 mM MnCl2, pH 7.4), and then incubated (60 min, 20° C.) with ^65Zn (unless otherwise stated 130,000 cpm, […] ^65ZnCl2 in 200 μl of blocking buffer±competing metal ion chloride). The dot-blot was then washed with blocking buffer (5×200 μl), the dot excised, placed in a test tube, and assayed by γ-counting (11% efficiency). The equilibration volume for stoichiometry estimates was regarded as 6×200 μl. The 214 nm UV absorbance of the unbound flow-through was assayed to determine the total amount of peptide remaining bound onto the membrane. […] To alter the pH, the ^65Zn incubation was carried out in the presence of 100 mM buffer: MOPS (pH 6.5-7.0), MES (pH 5.0-6.0), acetate (pH 3.5-4.5). The dot-blot apparatus was washed with detergent and EDTA (50 mM) then rinsed and siliconized between use.
Aliquots of Aβ were incubated (60 min) with ^65Zn^2+ in the presence of varying concentrations of unlabeled Zn^2+ (0.01-50 μM total). Values shown are means±S.D., n≧3. […] (FIG. 1b) depicts specificity of the Zn^2+ binding site for various metals. Aβ was incubated (60 min) with ^65 Zn^2+ (157 nM, 138,000 cpm) and competing unlabeled metal ions (50 μM total). […] Percent binding of total counts ^65Zn^2+/min added is corrected for the amounts (in nanomoles) of peptides adhering to the membrane. […] 157 nM ^65Zn (138,000 cpm) is used in this experiment to probe immobilized peptide (1.6 nmol).

For another assay, the target named is T1, Aβ (Homo sapiens, UniProt P05067).
T1 construct: purchased Sigma; Bachem (results also replicated with peptide from the Keck Laboratory, Yale); host or cells: chemical synthesis
T1 sequence (P05067 672-711): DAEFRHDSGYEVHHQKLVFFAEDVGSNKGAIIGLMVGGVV
Kind of assay: G50 gel filtration chromatography of Aβ in presence of metal ions or EDTA. Particulars: metal ion 25 μM. As for the experimental part:
Aβ was stored in aliquots of 0.52 mg/ml in water at −20° C., then kept at 4° C. when thawed. Reagents were mixed without vortex mixing. The incubated Aβ was directly applied to a G50 SF (Pharmacia, Uppsala, Sweden) column (Bio-Rad Econo-Column, 30×0.7 cm) pre-equilibrated with metal salt solution or EDTA (50 μM) in TBS at 20° C. and eluted at 8 ml/h (Wiz peristaltic pump, Isco, Lincoln, Nebr.). Absorbance was measured at 254 and 214 nm (Type 6 optical unit, Isco). The amount of Aβ eluting at various peaks was estimated from the area under the curve. […] Because the sample eluted in a volume of approximately 15 ml, the average concentration of the peptide on the column was 0.8 μM.
To study the effects of protein blocking upon adsorption of β to the chromatography column, a Sephadex G50 SF column which had been characterized previously for Aβ behavior was eluted with 3% bovine serum albumin (BSA) in TBS (50 ml) and equilibrated with non-BSA-containing buffer, subsequent to repeating the Aβ experiments.
The elution points of molecular mass standards and relative assignments of Aβ peak elutions are indicated. Mass standards were blue dextran (2×10^6 kDa, V0=void volume), BSA (66 kDa), carbonic anhydrase (29 kDa), cytochrome c (12.4 kDa), and aprotinin (6.5 kDa). The mass of Aβ is 4.3 kDa. […] Data for experiments performed in the presence of copper were taken from 214 nm readings and corrected for comparison.
A general note: In gel filtration, larger molecules generally elute earlier.

A short description of assay [2]: 65Zn2+ binding to immobilized peptide (dot-blot, Scatchard competition analysis). Conditions: 74 nM ^65Zn^2+, corrected for peptide on membrane.
The test system of another assay is trypsin. The assay can be described thus: Tryptic digestion of Aβ after incubation with Zn2+. In kind it is biochemical. Conditions: increasing zinc concentrations. Here is the method:
Tryptic Digestion of Aβ-Aβ1-40 (13.9 μg) was incubated with Zn^2+ ([…] in blocking buffer, 1 h, 37° C.) and then digested with trypsin (12 ng, 3 h, 37° C.). The reaction was stopped by adding SDS sample buffer containing phenylmethylsulfonyl fluoride (1 mM), boiling the samples (5 min), and applying the samples to Tris/Tricine gel electrophoresis and transfer. The blot was washed with EDTA, Coomassie-stained, incubated with ^65Zn^2+, individual bands were excised, assayed for ^65Zn^2+ binding, and N-terminal sequenced to confirm the identity of the digestion products. The effects of Zn^2+ (up to 100 μM in TBS) on the activity of trypsin, itself, were assayed by assay of Z-Arg-amido-4-methylcoumarin (Sigma) fluorescent cleavage product and determined to be negligible.
(FIG. 4a) depicts a blot of tryptic digests of Aβ (13.9 μg) after incubation with increasing concentrations of zinc (lane labels, in micromolar), stained by Coomassie Blue. […] The migration of the low molecular size markers (STD) are indicated (in kilodaltons) on the right. (FIG. 4b) depicts ^65Zn^2+ binding to Aβ tryptic digestion products. The blot in 4a was incubated with ^65Zn^2+, the visible bands excised, and the bound counts for each band determined.

Assay [3] in a line: Zinc-induced tinctorial amyloid formation (Congo Red, polarized light). In kind it is physicochemical. Conditions: Congo Red. As for the experimental part:
FIGS. 8a and 8b are photographs showing zinc-induced tinctorial amyloid formation. […] The particle diameter is 40μ. […] The experiment was repeated with EDTA (50 μM) substituted for Zn^2+ and yielded no visible material.
The particle diameter is 40μ. […] The experiment was repeated with EDTA (50 μM) substituted for Zn^2+ and yielded no visible material.

Test in assay [4]: not given
The source holds these as a separate data set.

With “25-35: Aβ fragment covering a region of the carboxyl terminus, residues 25-35 (GSNKGAIIGLM; Amyloid-beta protein 40; UniProt P05067 696-706, looked up, fragment)”, the “zinc binding (in words)” value in assay [1] is “unable to bind zinc”.

Regarding `[Ag+2]` [Ag^2+], at Aβ, the “reduction in eluted peptide” value turned out to be 60%.

Take `[Al+3]` [Al^3+]: the “total Zn^2+ concentration with similar or comparable effect on Aβ chromatography” value (“total Zn^2+ concentration” below) at Aβ is around 3 µM.

For `[Ba+2]` [Ba^2+], at Aβ, the “reduction in eluted peptide” value was found to be 60%.

Take `[Ca+2]` [Ca^2+]: the “reduction in eluted peptide” value on Aβ came to 60%.

Take `[Co+2]` [Co^2+]: the “total Zn^2+ concentration” value on Aβ was around 10 µM.

In the case of `[Cu+2]` [Cu^2+, copper], at Aβ, the “effect on eluted Aβ species (monomer, dimer, polymer)” value is “dramatic increase in Aβ dimerization”.

Regarding `[Fe+2]` [Fe^2+], the “total Zn^2+ concentration” value on Aβ is around 10 µM.

Consider `[Mg+2]` [Mg^2+], for which, on Aβ, the “reduction in eluted peptide” value turned out to be 60%.

Turning to `[Ni+2]` [Ni^2+], the “total Zn^2+ concentration” value on Aβ was around 10 µM.

In the case of `[Pb+2]` [Pb^2+], at Aβ, the “effect on eluted Aβ species (monomer, dimer, polymer)” value is “most strongly promotes the elution of the monomeric peptide, abolishing high order polymers” and the “total Zn^2+ concentration” value is around 0.4 µM.

Take `NC(CO)(CO)CO` [Tris]: the figures for the “abolition of ^65Zn^2+ binding to Aβ” value in assay [1] (Tris 150 mM) and in assay [1] (Tris 500 mM) were “≈ 50%” and “≈ 95%”, respectively.

Aβ1-28: fragment of Aβ, residues 1-28: the “zinc binding (in words)” value in assay [1] is “clearly binds zinc”. In addition, the “^65Zn^2+ binding compared with Aβ1-40” value in assay [2] is listed as 30 % of Bmax.

With “Aβ6-40: 3.6 kDa tryptic digestion product of Aβ1-40”, the “zinc binding (in words)” value in assay [1] was “binds zinc”. In the assay with trypsin, the “effect of zinc on rate of tryptic digestion of the peptide” value was “is inhibited by the presence of zinc”.

Regarding “Aβ17-40: 2.1 kDa tryptic digestion product of Aβ1-40, equivalent to post-secretase carboxyl-terminal product (LVFFAEDVGSNKGAIIGLMVGGVV; Amyloid-beta protein 40; UniProt P05067 688-711, looked up, fragment)”, the “zinc binding (in words)” value in assay [1] is “does not bind zinc”. Further, the “effect of zinc on rate of tryptic digestion of the peptide” value with trypsin is “is not inhibited by increasing zinc concentrations”.

For the molecule “gln11: Aβ1-28 where residue 11 is glutamine (DAEFRHDSGYQVHHQKLVFFAEDVGSNK; Amyloid-beta protein 40; UniProt P05067 672-699, looked up, variant E11Q)”, the “zinc binding (in words)” value in assay [1] is given as “does not interfere with ^65Zn^2+ binding”.

For “rat Aβ1-40: rat/mouse species of Aβ1-40; Arg→Gly, Tyr→Phe, His→Arg at positions 5, 10 and 13 (DAEFGHDSGFEVRHQKLVFFAEDVGSNKGAIIGLMVGGVV; Amyloid-beta protein 40; UniProt P08592 672-711, looked up)”, the “Zn^2+ concentration inducing amyloid by tinctorial criteria” value in assay [3] is at least 10 µM. For the same molecule, the “peptide aggregated into >0.2μ particles” value (EDTA, higher peptide concentrations) was “≈ 15%”. The “peptide aggregated into >0.2μ particles” value (EDTA, peptide 0.8 μM) was “no detectable aggregation”. Moreover, the “peptide aggregated into >0.2μ particles” value (Zn^2+ 25 μM, peptide 0.8 μM) is “no aggregation”. For the same molecule, the “peptide aggregated into >0.2μ particles” value (Zn^2+ 25 μM, peptide 4 μM) was determined as 25%. Where the note is “peptide 1.6 μM”, the “zinc concentration at which aggregation was observed” value was 25 µM and the “zinc concentration up to which the peptide remains stable” value was “up to 10 μM”. Besides, in assay [4] (EDTA, peptide 1.6 μM), the “proportion of particles >0.1μ” value came out at 36%, the “proportion of particles >0.22μ” value was 27% and the “proportion of particles >0.65μ” value worked out at 25%. Also, in assay [4] (Zn^2+ 25 μM vs EDTA), the “increase of proportion of >0.1μ particles following incubation with Zn^2+” value worked out at 20% and the “increase of proportion of >0.22μ particles following incubation with Zn^2+” value is given as 30%. The “proportion of particles >0.65μ” value in assay [4] (Zn^2+ 25 μM, peptide 1.6 μM) was “increased only slightly”.

Values taken from patent publication US6890727B2, “Diagnostic assay for Alzheimer's disease: assessment of Aβ abnormalities” (The General Hospital Corporation, priority 1994, dated 2005).
